# Assay results reported in paper PMC4223075, “A Conserved Peptide Pattern from a Widespread Microbial Virulence Factor Triggers Pattern-Induced Immunity in Arabidopsis” (PLoS Pathogens, 2014).
# No end group written: not given here.
# Test system: Arabidopsis leaves
# Test: Ethylene formation in Arabidopsis leaves / leaf discs
# Assay type: cell-based, Arabidopsis thaliana
# Settings: not given
# Description: For MAPK activity assays, infiltrated plant material was harvested after 15 minutes and frozen in liquid nitrogen before used for protein extraction in 20 mM Tris-HCl pH 7.5, 150 mM NaCl, 1 mM EDTA, 1% Triton X-100, 0,1% SDS, 5 mM DTT, Complete Protease Inhibitor Mini, EDTA-free (Roche, Mannheim), PhosStop Phosphatase Inhibitor Cocktail (Roche, Mannheim). After pelleting the cell debris (10 min, 16000 g, 4°C), the supernatant (30 µg protein) was separated on a 10% SDS-PAGE and transferred to a nitrocellulose membrane and activated MAPK6, 3 and 4 were detected by western blotting using the anti phospho p44/42-MAPK antibody from rabbit (Cell Signaling Technology, The Netherlands). For ROS burst measurements two leaf pieces, floated on ddH2O overnight, were placed in one well of a 96-well plate, containing 100 µl of a 20 µM L-012 and 0.5 µg ml^−1 peroxidase solution. Background was measured shortly in a 96-well Luminometer, (Mithras LB 940, Berthold Technologies) before elicitation with a peptide solution or control treatment respectively. The detection of ethylene was performed as described. Leaf pieces were incubated in 20 mM MES buffer, pH 5.7. To visualize callose apposition, leaves were treated as described and harvested 24 hours after infiltration of a peptide solution. Quantification of callose was performed by counting selected pixels and calculated in % relative to the respective image section of the leaf surface. Pictures were analyzed using Photoshop CS6 Magic tool, hereby removing background and leaf-veins within a certain color range. (Use: white, Mode: normal, Opacity: 100%). Medium alkalinization in suspension-cultured Arabidopsis cells and detection of GUS enzyme activity in PR1::GUS transgenic Arabidopsis plants were performed as described previously, [43]. Surface-sterilized Arabidopsis Col-0 seeds were grown in ½ MS liquid medium supplemented with 1 µM of nlp20 (PpNLP) peptide or its orthologs respectively, and flg22 or H2O serving as controls. Root length of two weeks-old seedlings was determined upon transfer onto agar plates.
row,Sequence,"elicitor activity (ethylene production in Arabidopsis leaf disks), in words"
1,YSWYFPKDSPVTGLGHR [peptide 12],inactive

# Same assay, conditions: synthetic peptides; Arabidopsis leaves; at least six different peptide concentrations; means ± SD of three replicates
row,Sequence,EC50 [nM]
1,RVATYNGVYAIMYSWYFPKD [compound 7],84 ± 11
2,AIMYSWYFAKDSPVTGLGHRHDWE [compound 23],307 ± 153
3,AIMYSWYFPKDSPVTGLGHAHDWE [compound 34],283 ± 40
4,AIMYSWYFPKASPVTGLGHRHDWE [compound 25],97 ± 36
5,YSWYFPKDSPVTGLGHR [peptide 12],> 50000
6,AIMYSWYAPKDSPVTGLGHRHDWE [compound 22],5.4 ± 3
7,AIMASWYFPKDSPVTGLGHRHDWE [compound 18],1500 ± 436
8,AIMYSWYFPKDSPATGLGHRHDWE [compound 28],30 ± 11
9,AIMYSWYFPKDSPVTGLAHRHDWE [compound 32],220 ± 78
10,AIMYSWYFPKDSPVTGLGHRHAWE [compound 36],6.2 ± 5.6
11,AIMYAWYFPKDSPVTGLGHRHDWE [compound 19],18 ± 10
12,AIMYSWYFPKDSPVTGLGARHDWE [compound 33],48 ± 34
13,AIMYSWYFPKDSPVTGLGHRADWE [compound 35],7.7 ± 1.7
14,AIMYSWYFPKDAPVTGLGHRHDWE [compound 26],57 ± 28
15,AIMYSWAFPKDSPVTGLGHRHDWE [compound 21],2630 ± 208
16,IMYSWYFPKDSPVTGLGHR [compound 10],133 ± 10

row,Sequence,EC50 [nM]
1,WIMYSWYFPKDSPVTGLGHRHDWE [compound 15],55 ± 24
2,KDSPVTGLGHRHDWE [compound 5],> 100000
3,AIMYSWYFPKDSPVTGLGHRHDWA [compound 38],7.3 ± 1.7
4,AIMYSWYFPKDSPVTALGHRHDWE [compound 30],23 ± 7.6
5,SWYFPKDSPVTGLGHR [compound 14],> 100000
6,AIMYSWYFPKDSPVTGAGHRHDWE [compound 31],24 ± 8
7,SWYFPKDSPVTGLGH [peptide 4],> 100000
8,AIMYSWYFPKDSAVTGLGHRHDWE [compound 27],76 ± 45
9,AIMYSWYFPKDSPVTGLGHRHDAE [compound 37],7.3 ± 1.8
10,MYSWYFPKDSPVTGLGHR [compound 11],1550 ± 328
11,AIMYSWYFPKDSPVAGLGHRHDWE [compound 29],25 ± 15
12,AAMYSWYFPKDSPVTGLGHRHDWE [compound 16],1570 ± 252
13,YAIMYSWYFPKDSPV [compound 3],217 ± 65
14,AIAYSWYFPKDSPVTGLGHRHDWE [compound 17],42 ± 9
15,AIMYSWYFPADSPVTGLGHRHDWE [compound 24],89 ± 31
